# Reference: patent US20050255131A1, “Clindamycin compositions and delivery system therefor” (priority 2004, published 2005)
# What was measured:
# [1] = Solubility of clindamycin phosphate in water, glycerin and water/glycerin co-solvent; assay type: physicochemical
# Description: For the clindamycin phosphate solution, a maximum of about 6% salt is soluble in water. This solution is not stable upon long-term storage at elevated temperatures. In order to utilize the chamber in a chamber delivery system wherein the contents of a small chamber are combined with the contents of a larger chamber, compositions containing a concentration of clindamycin phosphate higher than 6% are desirable. In accordance with the present disclosure, solutions containing concentrations of clindamycin in excess of 6% in a minimum amount of water may be prepared by using co-solvents such as glycerin. Clindamycin phosphate by itself is not soluble in glycerin alone. […] Thus, the present compositions may contain a solution of water, clindamycin and glycerin, wherein the amount of water is insufficient alone to solubilize the clindamycin. The term “solubilize” as used with respect to solubilizing clindamycin refers to the ability to dissolve clindamycin and optionally with heating and stirring and maintaining clindamycin in solution at room temperature for at least 24 hours. […] By increasing the concentration of clindamycin in solution by means of a co-solvent such as glycerin, the present methods make it possible to dissolve the salt in a small amount of water. […]
# [2] = Storage stability of clindamycin phosphate solutions; assay type: physicochemical; settings: solution in water; elevated temperatures
# Description: For the clindamycin phosphate solution, a maximum of about 6% salt is soluble in water. This solution is not stable upon long-term storage at elevated temperatures. In order to utilize the chamber in a chamber delivery system wherein the contents of a small chamber are combined with the contents of a larger chamber, compositions containing a concentration of clindamycin phosphate higher than 6% are desirable. In accordance with the present disclosure, solutions containing concentrations of clindamycin in excess of 6% in a minimum amount of water may be prepared by using co-solvents such as glycerin. Clindamycin phosphate by itself is not soluble in glycerin alone. […] Thus, the present compositions may contain a solution of water, clindamycin and glycerin, wherein the amount of water is insufficient alone to solubilize the clindamycin. The term “solubilize” as used with respect to solubilizing clindamycin refers to the ability to dissolve clindamycin and optionally with heating and stirring and maintaining clindamycin in solution at room temperature for at least 24 hours.
smiles,measurement,setting,value
CCC[C@@H]1C[C@@H](C(=O)N[C@@H]([C@H]2O[C@H](SC)[C@H](OP(=O)(O)O)[C@@H](O)[C@H]2O)[C@H](C)Cl)N(C)C1 [clindamycin phosphate],solubility in glycerin alone,"[1]; glycerin alone, no water",not soluble
same,maximum salt soluble in water,[1]; water alone,about 6%
same,stability of aqueous solution upon long-term storage,[2],not stable
